Reference: publication PMC12257073 (Cancer Research Communications, 2025)
Where “and” joins values, the source holds several entries; their conditions need not be identical. Equal entries are not always repeated. Where two headings read alike, the source gives them in different places.

How the values were obtained:
[1] = system: newly diagnosed AML with mutations in TP53 and/or complex karyotype
Description: Dose-limiting toxicities (DLT) were evaluated to establish the dose brought forward for an expansion cohort (phase 2).
The primary endpoint was achievement of CR within six cycles of therapy. Secondary endpoints included toxicity, duration of response, OS, and the proportion of eligible patients who effectively transitioned to allogeneic stem cell transplantation. Exploratory endpoints included pharmacokinetics (PK), correlative genetic, and biochemical data; correlations between morphologic remission, spectral flow cytometry, and mutational remission; and duration of remission or survival. […] Adverse events (AE) were graded according to the NCI Common Terminology Criteria for Adverse Events version 4.0 ([27]).
The phase 1b portion of the study used a standard 3 + 3 design with dose-escalation based on DLT. […] In the first stage, if four or more of 12 patients achieved CR, then an additional 21 patients would be enrolled for a total of 33 patients. At the end of the study, if 12 or more of all 33 patients achieved CR, then the null hypothesis would be rejected.

p-H2AX = p-H2AX in peripheral blood by spectral flow cytometry; type: in vivo, human; details: cycle 1, CR (n = 2), CRh/CRi/MLFS (n = 8), SD, treatment failure or early death (n = 7)
Description: In brief, Ficoll-enriched peripheral blood mononuclear cells were stained for external markers, fixed, permeabilized, and then stained for p-H2AX (Thermo Fisher Scientific; AB_2896984). Sample analysis was performed in the Ohio State University Comprehensive Cancer Center Flow Cytometry Shared Resource and Immune Monitoring & Discovery Platform using the Cytek Aurora. Data were analyzed using FCS Express version 7 (De Novo Software).
Based on the observation that TP-0903 upregulates p-H2AX, a marker of DNA damage, in TP53-mutated cell lines ([24]), we hypothesized that p-H2AX could serve as a clinical biomarker for TP-0903 activity. Analysis of peripheral blood from days 1 and 10 of cycle 1 was performed by spectral flow cytometry. The mean fluorescence intensity was measured for p-H2AX, and then values at day 10 were normalized using baseline values collected on day 1 (Supplementary Fig. S4).

[2] = TP53-mutated patients, TP-0903 + decitabine, n = 20
[3] = group 1, 37 mg TP-0903 + decitabine, 15 patients
[4] = group 1, TP-0903 37 mg/day + decitabine, n = 15
[5] = group 2, 25 mg TP-0903 + decitabine, 12 patients
[6] = group 2, TP-0903 25 mg/day + decitabine, n = 12
[7] = overall, TP-0903 + decitabine, n = 27

Compound: CN1CCN(Cc2ccc(Nc3ncc(Cl)c(Nc4ccccc4S(=O)(=O)N(C)C)n3)cc2)CC1.O=C(O)C(O)C(O)C(=O)O.O=C(O)C(O)C(O)C(=O)O [TP-0903, 2-(5-chloro-2-(4-((4-methylpiperazin-1-yl)methyl)phenylamino)pyrimidin-4-yl)amino-N,N-dimethylbenzene-1-sulfonamide di-tartrate salt]
- Best response by 6 cycles: CR [1, 2]: 5 (25) no. (%)
- Best response by 6 cycles: CRh [1, 2]: 4 (20) no. (%)
- Best response by 6 cycles: CRi [1, 2]: 0 (0) no. (%)
- Best response by 6 cycles: MLFS [1, 2]: 2 (10) no. (%)
- Best response by 6 cycles: NE (not evaluable) [1, 2]: 4 (20) no. (%)
- Best response by 6 cycles: SD [1, 2]: 4 (20) no. (%)
- Best response by 6 cycles: Treatment failure [1, 2]: 1 (5) no. (%)
- Overall composite remission rate (CR/CRh/CRi) [1, 2]: 9 (45, 23.1–68.5) no. (%, 95% CI)
- Overall response rate (CR/CRh/CRi/MLFS) [1, 2]: 11 (55, 31.5–76.9) no. (%, 95% CI)
- CR in patients without a TP53 mutation ([1]; five patients without a TP53 mutation, TP-0903 + decitabine): none of the five patients without a TP53 mutation achieved CR
- Overall composite remission rate (CR/CRi/CRh) ([1]; group 1, 37 mg TP-0903 + decitabine, 5/15): 33.3%
- CR rate within six cycles (primary endpoint) [1, 3]: 13.3% and 13%
- CRh rate [1, 3]: 20%
- MLFS rate [1, 3]: 7%
- Stable disease (SD) rate [1, 3]: 33%
- Treatment failure rate [1, 3]: 13%
- Best response by 6 cycles: CR [1, 4]: 2 (13.3) no. (%)
- Best response by 6 cycles: CRh [1, 4]: 3 (20) no. (%)
- Best response by 6 cycles: CRi [1, 4]: 0 (0) no. (%)
- Best response by 6 cycles: MLFS [1, 4]: 1 (6.7) no. (%)
- Best response by 6 cycles: NE (not evaluable) [1, 4]: 2 (13.3) no. (%)
- Best response by 6 cycles: SD [1, 4]: 5 (33.3) no. (%)
- Best response by 6 cycles: Treatment failure [1, 4]: 2 (13.3) no. (%)
- Overall composite remission rate (CR/CRh/CRi) [1, 4]: 5 (33.3, 11.8–61.6) no. (%, 95% CI)
- Overall response rate (CR/CRh/CRi/MLFS) [1, 4]: 6 (40, 16.3–67.7) no. (%, 95% CI)
- Overall composite remission rate (CR/CRi/CRh) ([1]; group 2, 25 mg TP-0903 + decitabine, 6/12): 50%
- CR rate within six cycles (primary endpoint) [1, 5]: 25%
- CRh rate [1, 5]: 8%
- CRi rate [1, 5]: 17%
- MLFS rate [1, 5]: 8%
- Patients who stopped treatment within four and 5 days because of AEs [1, 5]: 17%
- Stable disease (SD) rate [1, 5]: 25%
- Best response by 6 cycles: CR [1, 6]: 3 (25) no. (%)
- Best response by 6 cycles: CRh [1, 6]: 1 (8.3) no. (%)
- Best response by 6 cycles: CRi [1, 6]: 2 (16.7) no. (%)
- Best response by 6 cycles: MLFS [1, 6]: 1 (8.3) no. (%)
- Best response by 6 cycles: NE (not evaluable) [1, 6]: 2 (16.7) no. (%)
- Best response by 6 cycles: SD [1, 6]: 3 (25) no. (%)
- Best response by 6 cycles: Treatment failure [1, 6]: 0 (0) no. (%)
- Overall composite remission rate (CR/CRh/CRi) [1, 6]: 6 (50, 21.1–78) no. (%, 95% CI)
- Overall response rate (CR/CRh/CRi/MLFS) [1, 6]: 7 (58.3, 27.7–84.8) no. (%, 95% CI)
- Best response by 6 cycles: CR [1, 7]: 5 (18.5) no. (%)
- Best response by 6 cycles: CRh [1, 7]: 4 (14.8) no. (%)
- Best response by 6 cycles: CRi [1, 7]: 2 (7.4) no. (%)
- Best response by 6 cycles: MLFS [1, 7]: 2 (7.4) no. (%)
- Best response by 6 cycles: NE (not evaluable) [1, 7]: 4 (14.8) no. (%)
- Best response by 6 cycles: SD [1, 7]: 8 (29.6) no. (%)
- Best response by 6 cycles: Treatment failure [1, 7]: 2 (7.4) no. (%)
- Overall composite remission rate (CR/CRh/CRi) [1, 7]: 11 (40.7, 22.4–61.2) no. (%, 95% CI)
- Overall response rate (CR/CRh/CRi/MLFS) [1, 7]: 13 (48.2, 28.7–68.1) no. (%, 95% CI)
- Overall composite remission rate (CR/CRi/CRh) ([1]; patients with a TP53 mutation (n = 20), irrespective of group, 9/20): 45%
- True CR rate ([1]; patients with mutant TP53 who received 25 mg TP-0903 + decitabine, 3 of 9): 33.3%
- Change in p-H2AX mean fluorescence intensity, day 10 normalized to day 1 (p-H2AX): no significant change
